Experimental findings from patent publication US20220183997A1, “USE OF C[…] COMBINATION WITH ANTIBIOTICS” (GW Pharma Limited, priority 2019, published 2022) are described below.

Holding throughout (type): cell-based
The test system of assay [1] is E. coli. Nature of the assay: CBD-mediated OMV inhibition, OMV release quantified by nanoparticle tracking analysis. As to conditions: 1 h, vs control. How it is done: (§1) E. coli and S. aureus cultures were maintained by plating on Mueller-Hinton agar plates and weekly sub-culturing was performed according to previously established methods (Iqbal et. al. 2013).
(§2) Before OMV isolation, all bacterial growth medium was pre-treated before use by ultracentrifugation at 75,000 g for 24 h, to ensure minimum contamination with extracellular vesicles (EVs) from the medium.
(§3) For OMV isolation, bacteria were grown in EV-free medium (as described above) for 24 h at 37° C. and 5% CO2, the culture medium collected and centrifuged once at 400 g for 10 min for removal of cells, followed by centrifugation at 4000 g for 1 h at 4° C. to remove cell debris. […]
(§4) Samples were diluted 1:50 in sterile-filtered EV-free DPBS and the number of particles in the field of view was maintained in the range of 20-40 with a minimum concentration of samples at 5×10^7 particles/ml. Camera settings were according to the manufacturer's instructions (Malvern), five 30 sec videos per sample were recorded and replicate histograms averaged. […]
(§5) The experiment was repeated three times and the OMVs were quantified using NTA analysis. Cell viability was assessed after 1 h treatment with CBD compared to controls and before the start of every experiment using viable count.

The test system of assay [2] is S. aureus. Nature of the assay: CBD-mediated membrane vesicle inhibition, release quantified by nanoparticle tracking analysis. The note with it: CBD 1 or 5 μM, 1 h. How it is done: as §1, §2, §3, §4, §5
Assay [3] relates to E. coli. Nature of the assay: Disc diffusion test, antibiotic discs with CBD disc. As to conditions: antibiotic disc + 5 μM CBD disc vs antibiotic alone, 24 h. How it is done: (§6) Discs were impregnated with the following […]: Colistin (10 μg/ml), Rifampicin (15 μg/ml), Erythromycin (15 μg/ml), Kanamycin (30 μg/ml) and Vancomycin (5 μg/ml).
(§7) Concentration of the antibiotics used was based on previously published and established MIC values (Moskowitz et al., 2010; Rojas et al., 2017; Goldstein et al., 2018; Maclayton et al., 2006, Kshetry et al., 2016).
(§8) E. coli and S. aureus agar plates were prepared for the disc diffusion test by soaking a sterile paper disc in 5 μM CBD and placing it in the middle of the agar plate, while the impregnated antibiotic discs were placed equidistant to the CBD disc. Zone of inhibition was assessed after 24 h.
For orientation: Agar diffusion results depend on both activity and mobility in agar.

Assay [4] has as its system S. aureus. The assay is described as above. The note with it: antibiotic disc + 5 μM CBD disc vs antibiotic alone, 24 h. The method, then:
as §6, §7, §8

For the compound `C=C(C)[C@@H]1CCC(C)=C[C@H]1c1c(O)cc(CCCCC)cc1O` [CBD, Cannabidiol], the entries for the “reduction of total OMV release” value in assay [1] (1 μM CBD) and in assay [1] (5 μM CBD) were 73% and 54%, respectively. The “effect on membrane vesicle release” value in assay [2] is given as “no effect”.
In the case of `CC[C@H]1OC(=O)[C@H](C)[C@@H](O[C@H]2C[C@@](C)(OC)[C@@H](O)[C@H](C)O2)[C@H](C)[C@@H](O[C@@H]2O[C@H](C)C[C@H](N(C)C)[C@H]2O)[C@](C)(O)C[C@@H](C)C(=O)[C@H](C)[C@@H](O)[C@]1(C)O` [Erythromycin], the “increase of antibacterial effect (radius of zone of inhibition) when combined with CBD” value in assay [3] is 35%. For the same compound, the “effect of CBD on antibacterial activity of antibiotic (in words)” value in assay [4] is given as “reduced antibacterial effects”.
Consider `NC[C@H]1O[C@H](O[C@H]2[C@H](O)[C@@H](O[C@H]3O[C@H](CO)[C@@H](O)[C@H](N)[C@H]3O)[C@H](N)C[C@@H]2N)[C@H](O)[C@@H](O)[C@@H]1O` [Kanamycin], for which, in assay [3], the “increase of antibacterial effect (radius of zone of inhibition) when combined with CBD” value is reported as 18%. In assay [4], the “increase of antibiotic activity (radius of zone around diffusion disk) by CBD” value is reported as 30%.
As for `CO[C@H]1/C=C/O[C@@]2(C)Oc3c(C)c(O)c4c(O)c(c(/C=N/N5CCN(C)CC5)c(O)c4c3C2=O)NC(=O)/C(C)=C\C=C\[C@H](C)[C@H](O)[C@@H](C)[C@@H](O)[C@@H](C)[C@H](OC(C)=O)[C@@H]1C` [Rifampicin], in assay [3], the “increase of antibacterial effect (radius of zone of inhibition) when combined with CBD” value was determined as 50%.
`CN[C@H](CC(C)C)C(=O)N[C@H]1C(=O)N[C@@H](CC(N)=O)C(=O)N[C@H]2C(=O)N[C@H]3C(=O)N[C@H](C(=O)N[C@H](C(=O)O)c4cc(O)cc(O)c4-c4cc3ccc4O)[C@H](O)c3ccc(c(Cl)c3)Oc3cc2cc(c3O[C@@H]2O[C@H](CO)[C@@H](O)[C@H](O)[C@H]2O[C@H]2C[C@](C)(N)[C@H](O)[C@H](C)O2)Oc2ccc(cc2Cl)[C@H]1O` [Vancomycin]: the “sensitisation to antibiotic by CBD (in words)” value in assay [3] is “did not increase antibacterial effects”.
Consider Colistin [Colisitin], for which the “sensitisation to antibiotic by CBD (in words)” value in assay [3] was “not”.
